Assay results as given in patent US4438131A, “.OMEGA.-Cyano-1, .OMEGA.-diphenyl-azaalkane derivatives, their preparation and drugs containing them” (BASF Aktiengesellschaft, priority 1981, dated 1984).
Read-outs that look alike come from different tables or passages of the source.

Assays:
[1] = test system: creatine phosphate concentration in the myocardium; assay: Cardio-protective action against hypoxic cardiac metabolism disorders, oral, rats; type: in vivo, rat (Wistar); conditions: compounds 2-40 mg/kg, verapamil up to 40 mg/kg
Description: A drastic depletion of energy-rich phosphates in the mycocardium of anesthetized rats (Wistar, weight: 250-350 g, anesthetic: thiobutabarbital 100 mg/kg i.p.) was produced by standardized respiration with an oxygen-deficient mixture (2% of O2).
The test substances were administered to the still conscious animals 6 hours before the oxygen-deficient respiration. The percentage difference between the creatine phosphate concentration in the myocardium of animals pretreated with the test substance and that of the untreated hypoxic control animals was determined.

systolic blood pressure = assay: Antihypertensive action, spontaneously hypertensive rats (SHR), oral; type: in vivo; conditions: for Lowering of systolic blood pressure, R.A. (relative activity; verapamil = 1.00) / ED20: SHR, peroral; for ED20: Rattus norvegicus, po, read-out: Lowering of systolic blood pressure, ED 20%; for Antihypertensive action (in words): after 24 hours, SH rats, verapamil at 100 mg/kg
Description: The substances were administered orally to male spontaneously hypertensive rats (SHR) of the Okamoto strain (weight: 300-400 g). The systolic blood pressure was determined non-operatively on the tails of the rats by piezo-crystal measurements before and 2, 6, 24 and, where relevant, 30 hours after administration.
The dose which reduced the systolic pressure by 20%, taking into consideration the values from untreated control animals, was taken as the ED 20%.

[2] = test system: collagen-induced platelet aggregation; assay: Platelet aggregation-inhibiting action after oral administration to rats; conditions: Rattus norvegicus, 1 h, read-out: Inhibition of aggregation, ED 33%
Description: The substances were administered orally to male Sprague-Dawley rats (200-250 g). 1 hour after administration, samples of blood were taken under ether anesthetic, and platelet-rich plasma was obtained by centrifugation (300 g, 10 minutes at 4° C.). The platelet aggregation was measured photometrically, with the addition of MgCl2 and (end concentration of 10 mmoles/l) and Collagen Stago (end concentration of 0.02 mg/ml), in a Mark 3 Born Aggregometer. The maximum change in extinction/second was used as a measure of the aggregation.

[3] = test system: passive cutaneous anaphylaxis (PCA); assay: Antiallergic action, passive cutaneous anaphylaxis (PCA) in rats, oral; type: in vivo, rat (male); conditions: for % inhibition (diameter of colored spot, PCA): 21.5 mg/kg oral
Description: The model of passive cutaneous anaphylaxis (PCA) was used for this test.
Anesthetized male rats (100-140 g) were sensitized by intradermal injection (shaven dorsal skin) of 0.1 ml of an ovalbumin antiserum. After a sensitizing period of about 48 hours, they were treated with the test substances (oral administration). After various latency periods (2, 6, 12 and 24 hours), the experimental animals were injected intravenously with an antigen/Evans blue solution. The animals were sacrificed in each case 30 minutes after the injection, and the dorsal skin was removed and the circular blue stain on the inner surface measured.
The antiallergic action was quoted as the relative inhibition (Δ%) of the diameter of the colored spot.

Row | Compound | Lowering of systolic blood pressure, R.A. (relative activity; verapamil = 1.00) (systolic blood pressure; 2 hrs) | ED20 (systolic blood pressure; 2 hrs) [mg/kg] | ED20 (systolic blood pressure; 24 hrs) [mg/kg] | Lowering of systolic blood pressure, R.A. (relative activity; verapamil = 1.00) (systolic blood pressure; 6 hrs) | ED20 (systolic blood pressure; 6 hrs) [mg/kg] | ED33 [2] [mg/kg] | further results
1 | CCCCCCCCCCCCC(C#N)(CCCN(C)CCc1ccccc1)c1ccccc1 (stereo not drawn) [Example 5, 1,7-Diphenyl-3-methylaza-7-cyano-nonadecane] | – | – | – | – | – | – | Cardio-protective action (in words) [1]: particularly powerful action
2 | CCCCCCCCCCCCC(C#N)(CCCN(C)CCc1ccc(SCC)cc1)c1cccc(OC)c1 (stereo not drawn) [Example 42, 1-(4-Ethylmercaptophenyl)-3-methylaza-7-cyano-7-(3-methoxyphenyl)-nonadecane] | 2.25 | 0.3 | 58.3 | – | – | – | –
3 | CCCCCCCCCCCCC(C#N)(CCCN(C)CCc1cccc(OC)c1)c1cc(OC)c(OC)c(OC)c1 (stereo not drawn) [Example 20, 1-(3-Methoxyphenyl)-3-methylaza-7-cyano-7-(3,4,5-trimethoxyphenyl)-nonadecane] | 6.27 | 3.7 | 12.5 | 3.12 | 6.6 | – | Antihypertensive action (in words) (systolic blood pressure): still have an antihypertensive action
4 | CCCCCCCCCCCCC(C#N)(CCCN(C)CCc1cc(OC)cc(OC)c1)c1cccc(OCC)c1 (stereo not drawn) [Example 70, 1-(3,5-Dimethoxyphenyl)-3-methylaza-7-cyano-7-(3-ethoxyphenyl)-nonadecane] | – | – | – | – | – | 119 | –
5 | CCCCCCCCCCCCC(C#N)(CCCN(C)CCc1cccc(OC)c1)c1cccc(OC)c1 (stereo not drawn) [Example 3, 1,7-bis-(3-Methoxyphenyl)-3-methylaza-7-cyano-nonadecane] | 0.93 | 24.9 | 18.7 | 1.46 | 14.1 | 9.6 | Antihypertensive action (in words) (systolic blood pressure): still have an antihypertensive action; Cardio-protective action (in words) [1]: particularly powerful action; % inhibition (diameter of colored spot, PCA) ([3]; latency period 2 hours): 15%; % inhibition (diameter of colored spot, PCA) ([3]; latency period 6 hours): 40%; % inhibition (diameter of colored spot, PCA) ([3]; latency period 12 hours): 83%; % inhibition (diameter of colored spot, PCA) ([3]; latency period 24 hours): 68%; Antiallergic action (in words) ([3]; after oral administration): long-lasting antiallergic action; Antiallergic action compared with verapamil (in words) ([3]; latency periods of 12 and 24 hours, oral): substantially more powerful action
6 | CCCCCCCCCCCC(C#N)(CCCN(C)CCc1cccc(OC)c1)c1cccc(OC)c1 (stereo not drawn) [Example 25, 1,7-bis-(3-Methoxyphenyl)-3-methylaza-7-cyano-octadecane] | 3.41 | 6.8 | 46.4 | 2.02 | 10.2 | – | –
7 | 1-(3,5-Diethoxyphenyl)-3-methylaza-7-cyano-7-(3-ethoxyphenyl)-docosane [Example 68] | – | – | – | – | – | – | Cardio-protective action (in words) [1]: particularly powerful action
8 | COc1ccc(CCN(C)CCCC(C#N)(c2ccc(OC)c(OC)c2)C(C)C)cc1OC (stereo not drawn) [Verapamil, 1,7-bis-(3,4-dimethoxyphenyl)-3-methylaza-7-cyano-8-methyl-nonane, reference compound] | – | 23.2 | – | – | 20.6 | – | Antihypertensive action (in words) (systolic blood pressure): ineffective; % inhibition (diameter of colored spot, PCA) ([3]; latency period 2 hours): 53%; % inhibition (diameter of colored spot, PCA) ([3]; latency period 6 hours): 50%; % inhibition (diameter of colored spot, PCA) ([3]; latency period 12 hours): 33%; % inhibition (diameter of colored spot, PCA) ([3]; latency period 24 hours): 31%
9 | CCCCCCCCCCCCCCCC(C#N)(CCCN(C)CCc1cccc(OC)c1)c1cccc(OC)c1 (stereo not drawn) [Example 6, 1,7-bis-(3-Methoxyphenyl)-3-methylaza-7-cyano-docosane] | – | – | – | – | – | 49 | –
10 | CCCCCCCCCCCCC(C#N)(CCCNCCc1cccc(OC)c1)c1cccc(OC)c1 (stereo not drawn) [Example 75, 1,7-bis-(3-Methoxyphenyl)-3-aza-7-cyano-nonadecane] | – | – | – | – | – | 90.2 | –
11 | CCCCCCCCCCCCC(C#N)(CCCN(C)CCc1cccc(OC)c1)c1ccc(OC)c(OC)c1 (stereo not drawn) [Example 19, 1-(3-Methoxyphenyl)-3-methylaza-7-cyano-7-(3,4-dimethoxyphenyl)-nonadecane] | 3.09 | 7.5 | 46.4 | 1.04 | 19.8 | – | –
